Data taken from US8372840B2, “Potassium channel blockers” (Xention Limited, priority 2008, dated 2013).

Legend:
human Kv1.3 = target: T1, human Kv1.3 (Homo sapiens, UniProt P22001); experiment: Kv1.3 Autopatch Electrophysiology (whole cell patch-clamp, stably transfected CHO cells); assay type: cell-based; conditions: compound 1 μM, step to +30 mV for 500 ms, inhibition of total charge relative to control, room temperature; for inhibition at 1 µM: CHO, read-out: hKv1.3 % inh.
T1 construct: expressed in transfected cells; host or cells: stably transfected cells grown in medium for CHO cells
Description: Cells stably transfected with cDNA for human Kv1.3 (in pcDNA3.1) were grown in Ex-cell 302 serum-free medium for CHO cells, supplemented with 10 μl/ml [100×] glutamine, 500 μg/ml G418 ([…]), and 1% HT supplement (50×, hypoxanthine and thymidine). Compounds were tested on these cells using the AutoPatch technology in whole cell mode.
The external bathing solution contained (in mM): 150 NaCl, 10 KCl, 1 MgCl2, 3 CaCl2, 10 HEPES, pH 7.4 with NaOH. Patch pipettes were filled with an electrode solution of composition (in mM): 100 K-Gluconate, 20 KCl, 1 MgCl2, 1 CaCl2, 10 HEPES, 11 EGTA, 5 ATP-Na2, 2 Glutathione pH 7.2 with KOH.
Compounds were dissolved in DMSO (100%) and made up in the external bather at a concentration of 1 μM immediately prior to use. All experiments were conducted at room temperature.
A cell suspension (10 ml), with a density of 6×10^6 cells, was aliquoted into a 15 ml centrifuge tube and stored at 4° C. before use. Prior to use a tube was taken and centrifuged at 1000 rpm for 4 mins at room temperature. The supernatant was then discarded, leaving a cell pellet at the bottom of the tube. The pellet was then resuspended using 1 ml of cold (4° C.), filtered (0.22 μm), 0.05% BSA/bather solution (0.05 g BSA/100 ml bather). The bottom of the tube was manually agitated followed by gentle tituration. The cell suspension was then placed in the AutoPatch™ temperature controlled cell-hotel at 14° C. and regularly titurated.
A length of Teflon capillary tubing was dipped into the cell suspension solution, and a column of fluid was taken up by negative pressure. The column of fluid was in electrically connectivity with a Ag/AgCl reference electrode. Borosilicate glass patch pipettes (from 1.5 mm OD, thin-walled filamented, GC150-TF capillary glass, Harvard) were pulled using a DMZ pipette puller (Zeitz Instruments), and were back-filled using the internal pipette solution, being careful that no bubbles remained at the tip or in the body of the pipette. Patch pipettes typically had resistances of 2.5-3.5 MΩ. Once filled, the pipette tip and a proportion of the shaft (˜15 mm) were dipped into Sigmacote (Sigma). The recording pipettes were placed in a multiwell array and mounted on the AutoPatch™ machine. Automated patch-clamping and drug-application was initiated by the operator, but thereafter AutoPatch.exe continued the experiment providing that pre-set conditions and criteria were satisfied.
Whole cell patch-clamp recordings were made using the AutoPatch™ rig, which incorporated an EPC9 or EPC10 amplifier (HEKA, Germany) under control of Pulse software (v8.54 or v8.76, HEKA, Germany), a cell applicator, automated drug application system (DAS), valve controller (VF1) and a suction device all at room temperature. This equipment was completely under the control of AutoPatch.exe and operator intervention was only made when there was a requirement to refill the bather reservoirs or to prevent the loss of a cell due to a technical error.
Qualification stages prior to perfusion and drug application ensured that the observed current met the criteria for the experiment. Cells were continuously perfused with external solution at a flow rate of ˜2 ml/minute.
Electrophysiology voltage-step protocols and analysis of data was performed as follows. Data were sampled at 5 kHz, and filtered with a −3 dB bandwidth of 2.5 kHz. Cells were held at a voltage of −80 mV. Currents were evoked by a voltage step to +30 mV for 500 ms in duration applied every 15 s. Online analysis of the hKv1.3 current during the application of compounds was performed by the Pulse (v8.54 or v8.76, HEKA, Germany), Excel (Microsoft, USA) and AutoPatch™ software, with the total charge measured during the whole of voltage step Inhibition of charge movement in the presence of drug was calculated relative to control.

hKv1.5 = hKv1.5 (Homo sapiens, UniProt P22460); experiment: Kv1.5 Autopatch Electrophysiology (whole cell patch-clamp); assay type: cell-based; conditions: compound 1 μM, step to 0 mV for 1000 ms, total charge, room temperature (22-24° C.); for inhibition at 1 µM: read-out: hKv1.5 % inh.
Description: The external bathing solution contained (in mM): 150 NaCl, 10 KCl, […], 3 MgCl2, 1 CaCl2, 10 HEPES, pH 7.4. Patch pipettes were filled with an electrode solution of composition (in mM): 160 KCl, 0.5 MgCl2, 10 HEPES, 1 EGTA, pH 7.4 with KOH.
Compounds were dissolved in DMSO (100%) and made up in the external bather at a concentration of 1 μM. All experiments were conducted at room temperature (22-24° C.).
A cell suspension (10 ml), with a density of 100,000 cells/ml, was aliquoted into a 15 ml centrifuge tube and transferred to an incubator (37° C., 5% CO2) for approximately one hour before use. Following 60 min incubation, a tube was taken and centrifuged at 1000 rpm for 4 mins at room temperature. 9.5 ml supernatant was thence discarded, leaving a cell pellet at the bottom of the tube. The pellet was then resuspended using 100 μl of cold (4° C.), filtered (0.22 μm), 0.2% BSA/bather solution (0.02 g BSA/10 ml bather). The bottom of the tube was manually agitated gently until the solution became cloudy with cells. The 100 μl cell resuspension solution was then stored on the bench at 4° C. (using a Peltier-based temperature control device) until used.
A length of capillary glass (1B150E-4, WPI) was dipped into the cell suspension solution, such that ˜3 cm column of fluid was taken up by capillary action. A Ag/AgCl wire was dropped into the non-dipped end of the capillary also. The outside of the solution-filled end of the capillary was then dried and the capillary was loaded into the AutoPatch™
Borosilicate glass patch pipettes (from 1.5 mm OD, thin-walled filamented, GC150-TF capillary glass, Harvard) were pulled using a DMZ pipette puller (Zeitz Instruments), and were back-filled using the internal pipette solution, being careful that no bubbles remain at the tip or in the body of the pipette. Patch pipettes typically had resistances of 2.3-3.5 MΩ. Once filled, the pipette tip and a proportion of the shaft (˜15 mm) were dipped into Sigmacote (Sigma). The recording pipette was then loaded into the AutoPatch™. Automated patch-clamping was initiated by the operator, but thereafter AutoPatch.exe continued the experiment providing that pre-set conditions and criteria were satisfied.
Whole cell patch-clamp recordings were made using the AutoPatch™ rig, which incorporated an EPC9 amplifier (HEKA, Germany) under control of Pulse software (v8.54, HEKA, Germany), a motion controller with 2 translators (Newport, UK), valve controller (VF1) and a c-level suction device all at room temperature (22-24° C.). This equipment was completely under the control of AutoPatch.exe and operator intervention was only made when there was a requirement to refill the drug reservoirs or to prevent the loss of a cell due to a technical error. Cells with an Rseries greater than 18 MΩ were discounted from the experiment.
Qualification stages prior to perfusion and drug application ensured that the observed current met the criteria for the experiment. Only those cells with an IK>500 pA were used for experiments. Cells were continuously perfused with external solution at a flow rate of 1.8-2 ml/minute. […] Online analysis of the hKv1.5 current during the application of compounds was performed by the AutoPatch™ software. Voltage-step protocols and analysis of data was performed as described for conventional electrophysiology.
Electrophysiology voltage-step protocols and analysis of data was performed as follows. Data was sampled at 5 kHz, and filtered with a −3 dB bandwidth of 2.5 kHz. Cells were held at a voltage of −80 mV. Currents were evoked to a voltage step for 1000 ms in duration at 0 mV every 5 s. Currents were analysed using Pulsefit software (v8.54, HEKA, Germany), with the total charge measured during the whole of the voltage step. All other plots were produced using Igor Pro (WaveMetrics).

T1 sequence (P22001 whole entry): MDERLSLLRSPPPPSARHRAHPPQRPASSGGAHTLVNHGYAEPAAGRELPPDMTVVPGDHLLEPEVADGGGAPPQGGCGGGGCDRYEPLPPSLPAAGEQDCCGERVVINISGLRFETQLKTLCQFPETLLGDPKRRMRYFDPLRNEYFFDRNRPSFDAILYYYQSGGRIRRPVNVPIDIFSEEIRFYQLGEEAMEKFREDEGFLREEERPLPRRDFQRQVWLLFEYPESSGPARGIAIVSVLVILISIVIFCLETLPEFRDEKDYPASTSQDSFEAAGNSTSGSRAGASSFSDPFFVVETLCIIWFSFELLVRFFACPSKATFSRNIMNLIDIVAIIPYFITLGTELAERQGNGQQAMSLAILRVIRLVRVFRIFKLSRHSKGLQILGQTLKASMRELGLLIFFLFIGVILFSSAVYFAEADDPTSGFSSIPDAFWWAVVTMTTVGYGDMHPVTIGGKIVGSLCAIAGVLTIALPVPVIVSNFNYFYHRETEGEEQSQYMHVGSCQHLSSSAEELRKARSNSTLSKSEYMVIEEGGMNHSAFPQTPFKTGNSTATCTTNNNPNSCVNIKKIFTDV
hKv1.5, sequence (P22460 whole entry): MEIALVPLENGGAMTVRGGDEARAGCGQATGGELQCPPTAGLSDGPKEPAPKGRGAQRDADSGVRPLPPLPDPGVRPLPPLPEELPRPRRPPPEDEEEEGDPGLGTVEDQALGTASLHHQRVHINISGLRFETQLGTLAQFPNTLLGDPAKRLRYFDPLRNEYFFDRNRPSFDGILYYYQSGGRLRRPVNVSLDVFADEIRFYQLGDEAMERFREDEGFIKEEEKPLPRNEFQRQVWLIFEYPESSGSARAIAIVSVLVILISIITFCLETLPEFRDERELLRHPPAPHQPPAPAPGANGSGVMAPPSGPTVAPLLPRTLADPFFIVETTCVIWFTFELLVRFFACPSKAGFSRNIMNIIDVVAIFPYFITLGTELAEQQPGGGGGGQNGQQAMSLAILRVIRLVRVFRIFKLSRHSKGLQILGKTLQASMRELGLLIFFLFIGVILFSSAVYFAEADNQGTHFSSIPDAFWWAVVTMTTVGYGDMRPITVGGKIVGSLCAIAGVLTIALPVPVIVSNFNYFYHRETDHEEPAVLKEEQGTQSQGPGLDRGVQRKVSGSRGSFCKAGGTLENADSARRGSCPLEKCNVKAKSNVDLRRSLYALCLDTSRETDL

Compound	inhibition at 1 µM (human Kv1.3)	inhibition at 1 µM (hKv1.5)	hKv1.3 % inh. (human Kv1.3)	hKv1.5 % inh. (hKv1.5)
CNC(=O)COc1cccc(N(Cc2ccc(Cl)cc2)S(=O)(=O)c2ccn(C)n2)c1 [Example 7, 2-{3-[(4-Chloro-benzyl)-(1-methyl-1H-pyrazole-3-sulfonyl)-amino]-phenoxy}-N-methyl-acetamide]	99%	93%	–	–
O=C1NCCN1c1cccc(N(Cc2ccc(Cl)cc2)S(=O)(=O)c2ccccc2)c1 [Example 46, N-(4-Chloro-benzyl)-N-[3-(2-oxo-imidazolidin-1-yl)-phenyl]-benzenesulfonamide]	100%	91%	–	–
N-[3-(Benzenesulfonyl-benzyl-amino)-phenyl]-acetamide [Example 10]	–	–	50%	28%
O=S(=O)(c1ccccc1)N(Cc1ccccc1)c1cccc(N2CCNC(c3ccccc3)C2)c1 (stereo not shown) [Example 14, N-Benzyl-N-[3-(3-phenyl-piperazin-1-yl)-phenyl]-benzenesulfonamide]	94%	77%	–	–
1-Methyl-1H-imidazole-4-sulfonic acid (4-chloro-benzyl)-(3-morpholin-4-yl-phenyl)-amide [Example 36]	–	–	83%	44%
O=C1NCCN1c1cccc(N(Cc2ccccc2)S(=O)(=O)c2ccccc2)c1 [Example 1, N-Benzyl-N-[3-(2-oxo-imidazolidin-1-yl)-phenyl]-benzenesulfonamide]	86%	66%	–	–
N-Benzyl-3-cyano-4-fluoro-N-[3-(2-oxo-imidazolidin-1-yl)-phenyl]-benzenesulfonamide [Example 44]	–	–	90%	72%
1-Methyl-1H-pyrazole-3-sulfonic acid (4-chloro-benzyl)-(3-morpholin-4-yl-phenyl)-amide [Example 40]	–	–	99%	95%
4-Methyl-3,4-dihydro-2H-benzo[1,4]oxazine-7-sulfonic acid benzyl-[3-(2-oxo-pyrrolidin-1-yl)-phenyl]-amide [Example 18]	–	–	65%	56%
Pyridine-3-sulfonic acid benzyl-[3-(2-oxo-imidazolidin-1-yl)-phenyl]-a(2-oxo-imidazolidin-1-yl)-phenyl]-amide [Example 47]	–	–	74%	51%
Cn1ccc(S(=O)(=O)N(Cc2ccc(Cl)cc2)c2cccc(OCc3ccccn3)c2)n1 [Example 6, 1-Methyl-1H-pyrazole-3-sulfonic acid (4-chloro-benzyl)-[3-(pyridin-2-ylmethoxy)-phenyl]-amide]	91%	72%	–	–
O=C(Cc1ccccc1)Nc1cccc(N(Cc2ccccc2)S(=O)(=O)c2ccccc2)c1 [Example 11, N-[3-(Benzenesulfonyl-benzyl-amino)-phenyl]-2-phenyl-acetamide]	86%	77%	–	–
Cn1ccc(S(=O)(=O)N(Cc2ccc(Cl)cc2)c2cccc(OCC(=O)Nc3ccccn3)c2)n1 [Example 49, 2-{3-[(4-Chloro-benzyl)-(1-methyl-1H-pyrazole-3-sulfonyl)-amino]-phenoxy}-N-pyridin-2-yl-acetamide]	95%	99%	–	–
Cc1nc(S(=O)(=O)N(Cc2ccccc2)c2cccc(N3CCOCC3)c2)cn1C [Example 19, 1,2-Dimethyl-1H-imidazole-4-sulfonic acid benzyl-(3-morpholin-4-yl-phenyl)-amide]	75%	42%	–	–
Pyridine-3-sulfonic acid benzyl-[3-(4-phenyl-piperazin-1-yl)-phenyl]-amide [Example 16]	–	–	97%	91%
Pyridine-3-sulfonic acid (4-chloro-benzyl)-[3-(2-oxo-imidazolidin-1-ylbenzyl)-[3-(2-oxo-imidazolidin-1-yl)-phenyl]-amide [Example 48]	–	–	96%	89%
1-Methyl-1H-pyrazole-3-sulfonic acid benzyl-(3-morpholin-4-yl-phenyl)-amide [Example 41]	–	–	92%	33%
COCC(=O)Nc1cccc(N(Cc2ccccc2)S(=O)(=O)c2ccccc2)c1 [Example 12, N-[3-(Benzenesulfonyl-benzyl-amino)-phenyl]-2-methoxy-acetamide]	85%	58%	–	–
Cn1cnc(S(=O)(=O)N(Cc2ccc(Cl)cc2)c2ccc(F)c(N3CCCC3=O)c2)c1 [Example 4, 1-Methyl-1H-imidazole-4-sulfonic acid (4-chloro-benzyl)-[4-fluoro-3-(2-oxo-pyrrolidin-1-yl)-phenyl]-amide]	61%	–	–	–
